From the NIST ThermoML archive (doi:10.1016/j.fluid.2009.09.005)

Assays:
[1] = Capillary rise
[2] = wn = mass fraction of the nth substance listed; conditions: Capillary rise

CC(F)F [1,1-difluoroethane]
[1]
Conditions | surface tension liquid-gas [mN/m]
298.18 K | 9.747
303.23 K | 9.062
308.19 K | 8.505
313.13 K | 7.731

CC(C)C [2-methylpropane]
[1]
Conditions | surface tension liquid-gas [mN/m]
313.17 K | 8.28
318.13 K | 7.704
323.16 K | 7.182
328.12 K | 6.691
328.13 K | 6.669

FC(F)C(F)(F)F [pentafluoroethane] + CC(F)F
[2]
Conditions | surface tension liquid-gas [mN/m]
243.08 K, w1 = 0.2019 | 16.5
243.16 K, w1 = 0.097 | 17
243.22 K, w1 = 0.2996 | 15.6
248.09 K, w1 = 0.2019 | 15.8
248.12 K, w1 = 0.2996 | 15
248.13 K, w1 = 0.097 | 16.2
253.12 K, w1 = 0.2019 | 15.1
253.13 K, w1 = 0.2996 | 14.3
253.55 K, w1 = 0.097 | 15.3
258.11 K, w1 = 0.097 | 14.6
258.16 K, w1 = 0.2019 | 14.4
258.16 K, w1 = 0.2996 | 13.7
263.06 K, w1 = 0.097 | 13.9
263.17 K, w1 = 0.2996 | 13
263.19 K, w1 = 0.2019 | 13.5
268.12 K, w1 = 0.097 | 13.3
268.17 K, w1 = 0.2019 | 12.9
268.18 K, w1 = 0.2996 | 12.2
273.18 K, w1 = 0.097 | 12.5
273.18 K, w1 = 0.2996 | 11.4
273.19 K, w1 = 0.2019 | 12.2
278.17 K, w1 = 0.2996 | 10.6
278.18 K, w1 = 0.097 | 11.8
278.42 K, w1 = 0.2019 | 11.4
283.13 K, w1 = 0.097 | 11.2
283.15 K, w1 = 0.2019 | 10.6
283.17 K, w1 = 0.2996 | 10.1
288.16 K, w1 = 0.2019 | 9.9
288.17 K, w1 = 0.097 | 10.6
288.18 K, w1 = 0.2996 | 9.5
293.14 K, w1 = 0.2019 | 9.4
293.17 K, w1 = 0.097 | 9.8
293.18 K, w1 = 0.2996 | 8.7
298.08 K, w1 = 0.2019 | 8.8
298.1 K, w1 = 0.097 | 9.2
298.11 K, w1 = 0.2996 | 8
303.13 K, w1 = 0.2019 | 8
303.17 K, w1 = 0.097 | 8.5
303.18 K, w1 = 0.2996 | 7.4
308.1 K, w1 = 0.097 | 7.9
308.1 K, w1 = 0.2019 | 7.4
308.12 K, w1 = 0.2996 | 6.7
313.11 K, w1 = 0.2019 | 6.7
313.16 K, w1 = 0.097 | 7.2
313.19 K, w1 = 0.2996 | 6.1
318.11 K, w1 = 0.2019 | 6.1
318.12 K, w1 = 0.097 | 6.5
318.16 K, w1 = 0.2996 | 5.5
323.14 K, w1 = 0.2019 | 5.4
323.16 K, w1 = 0.097 | 5.8
323.17 K, w1 = 0.2996 | 5
328.1 K, w1 = 0.2019 | 4.8
328.11 K, w1 = 0.097 | 5.2
328.16 K, w1 = 0.2996 | 4.3
